Experiments:
HCT116-EV cells = test: MTT cell viability, HCT116-EV cells (incl. Chou-Talalay analysis); assay type: cell-based, human
Procedure: HCT116 cells were seeded (1.25 × 10^5 cells/well) in 24-well plates and cultured for 24 h. For the transient expression of the recombinant human AKR1C3, the cells were transfected with a pCI_AKR1C3 or empty pCI plasmid as control (previously described in a study by Hofman et al.) according to the manufacturer’s instructions (jetPRIME® Transfection Reagent; Polyplus Transfection®, Illkirch, France). For each 24-well plate, a mixture of 0.75 µL of the jetPRIME® Transfection Reagent and 0.25 µg of plasmid was incubated for 10 min at room temperature. Then, polyplexes were added to the HCT116 cells with 0.5 mL of fresh DMEM supplemented with 10% FBS and incubated for 24 h (37 °C, 5% CO2). The expression of recombinant AKR1C3 was verified by western blotting as per methods described previously.
Twenty-four hours prior to the experiment, transfected HCT116 cells (8 × 10^3 cells/well) or A549 cells (5 × 10^3 cells/well) were seeded in 96-well plates. The cell culture medium was replaced with fresh medium containing increasing amounts of Dau (final concentrations: 0.01, 0.05, 0.1, 0.25, 0.5, 0.75, 1, and 10 µM) with or without BTK inhibitors (final concentrations: 1, 5, and 10 µM). After 72 h of incubation under standard conditions (37 °C, 5% CO2), cell viability was assessed by MTT (Sigma-Aldrich, Prague, Czech Republic) assay. For this, 50 µL of the MTT solution (3 mg/mL) was added to each well and incubated for 30 min. The supernatant was collected, and the cell monolayers were dissolved in 100 µL of DMSO. The absorbance was measured at 570 and 690 nm by a microplate reader Infinite M200 (Tecan, Salzburg, Austria), and the background values at 690 nm were subtracted from the absorbance obtained at 570 nm. The half-maximal inhibitory concentrations (IC50) were calculated using GraphPad Prism 8.1.2. The drug combination pharmacodynamics were determined by the Chou-Talalay method using the CompuSyn ver. 3.0.1 software (ComboSyn Inc., Paramus, NJ, USA).

[1] = recommended dose 200 mg/day, cited from earlier work
[2] = BTK-inhibitor 5 µM + Dau 0.25 µM
[3] = BTK-inhibitor 5 µM + Dau 0.50 µM
[4] = BTK-inhibitor 5 µM + Dau 0.75 µM
[5] = BTK-inhibitor 5 µM + Dau 1.00 µM
[6] = BTK-inhibitor 10 µM + Dau 0.25 µM
[7] = BTK-inhibitor 10 µM + Dau 0.50 µM
[8] = BTK-inhibitor 10 µM + Dau 0.75 µM
[9] = BTK-inhibitor 10 µM + Dau 1.00 µM

Structure (SMILES): CC#CC(=O)N1CCC[C@H]1c1nc(-c2ccc(C(=O)Nc3ccccn3)cc2)c2c(N)nccn12 [Acalabrutinib, acalabrutinib]
- Combination index (CI) (HCT116-EV cells; [2]): 0.64 ± 0.07
- Dose reduction index for Dau (HCT116-EV cells; [2]): 1.59 ± 0.16
- Fraction affected (Fa %) (HCT116-EV cells; [2]): 57.98 ± 10.7%
- Combination index (CI) (HCT116-EV cells; [3]): 0.80 ± 0.02
- Dose reduction index for Dau (HCT116-EV cells; [3]): 1.26 ± 0.03
- Fraction affected (Fa %) (HCT116-EV cells; [3]): 76.14 ± 4.55%
- Combination index (CI) (HCT116-EV cells; [4]): 0.73 ± 0.05
- Dose reduction index for Dau (HCT116-EV cells; [4]): 1.38 ± 0.09
- Fraction affected (Fa %) (HCT116-EV cells; [4]): 88.86 ± 2.18%
- Combination index (CI) (HCT116-EV cells; [5]): 0.93 ± 0.17
- Dose reduction index for Dau (HCT116-EV cells; [5]): 1.10 ± 0.20
- Fraction affected (Fa %) (HCT116-EV cells; [5]): 89.81 ± 0.07%
- Combination index (CI) (HCT116-EV cells; [6]): 0.64 ± 0.01
- Dose reduction index for Dau (HCT116-EV cells; [6]): 1.60 ± 0.00
- Fraction affected (Fa %) (HCT116-EV cells; [6]): 58.22 ± 6.27%
- Combination index (CI) (HCT116-EV cells; [7]): 0.68 ± 0.05
- Dose reduction index for Dau (HCT116-EV cells; [7]): 1.48 ± 0.11
- Fraction affected (Fa %) (HCT116-EV cells; [7]): 81.17 ± 2.72%
- Combination index (CI) (HCT116-EV cells; [8]): 0.62 ± 0.12
- Dose reduction index for Dau (HCT116-EV cells; [8]): 1.65 ± 0.31
- Fraction affected (Fa %) (HCT116-EV cells; [8]): 91.66 ± 0.08%
- Combination index (CI) (HCT116-EV cells; [9]): 0.88 ± 0.12
- Dose reduction index for Dau (HCT116-EV cells; [9]): 1.15 ± 0.15
- Fraction affected (Fa %) (HCT116-EV cells; [9]): 90.59 ± 0.95%
- IC50 (HCT116-EV cells; Homo sapiens, 72 h MTT, read-out: IC50 of BTK inhibitor alone (cell viability)): 33 µM
- approximate Cmax [1]: ~825 ng/mL
- Cmax ([1]; read-out: approximate Cmax): ~1800 nM

From PMC7764606 (Cancers, 2020)
